In patent US7241799B2, “Cannabimimetic indole derivatives” (University of Connecticut, priority 1999, dated 2007):
Where two headings read alike, the source gives them in different places.

Tests used:
CB1 receptor = target: T1, CB1 receptor (Rattus norvegicus, UniProt P20272); assay: CB1 receptor binding, [3H] CP-55,940 displacement, rat forebrain membranes; settings: rat forebrain membranes, 0.8 nM [3H] CP-55,940, read-out: Kl CB1
T1 construct: membranes were prepared from rat forebrain membranes; from tissue; host or cells: rat forebrain
Protocol: (§1) The materials were tested for CB2 receptor binding affinity and for CB1 receptor affinity (to determine selectivity for the CB2 receptor). As used herein, “binding affinity” is represented by the IC50 value which is the concentration of an analog required to occupy the 50% of the total number (Bmax) of the receptors. The lower the IC50 value the higher the binding affinity.
For the CB1 receptor binding studies, membranes were prepared from rat forebrain membranes according to the procedure of P. R. Dodd et al, A Rapid Method for Preparing Synaptosomes: Comparison with Alternative Procedures, Brain Res., 107–118 (1981). The binding of the novel analogues to the CB1 cannabinoid receptor was assessed as described in W. A. Devane et al, Determination and Characterization of a Cannabinoid Receptor in a Rat Brain, Mol. Pharmacol., 34, 605–613 (1988) and A. Charalambous et al, 5′-azido Δ^8 THC: A Novel Photoaffinity Label for the Cannabinoid Receptor, J. Med. Chem., 35, 3076–3079 (1992) with the following changes. The above articles are incorporated by reference herein.
Membranes, previously frozen at −80° C., were thawed on ice. To the stirred suspension was added three volumes of TME (25 mM Tris-HCl buffer, 5 mM MgCl2 and 1 mM EDTA) at a pH 7.4. The suspension was incubated at 4° C. for 30 min. At the end of the incubation, the membranes were pelleted and washed three times with TME.
(§2) The treated membranes were subsequently used in the binding assay described below. Approximately 30 μg of membranes were incubated in silanized 96-well microtiter plate with TME containing 0.1% essentially fatty acid-free bovine serum albumin (BSA), 0.8 nM [^3H] CP-55,940, and various concentrations of test materials at […] for 1 hour. The samples were filtered using Packard Filtermate 196 and Whatman GF/C filterplates and washed with wash buffer (TME) containing 0.5% BSA. Radioactivity was detected using MicroScint 20 scintillation cocktail added directly to the dried filterplates, and the filterplates were counted using a Packard Instruments Top-Count. Nonspecific binding was assessed using 100 nM CP-55,940. Data collected from three independent experiments performed with duplicate determinations was normalized between 100% and 0% specific binding for [^3H] CP-55,940, determined using buffer and 100 nM CP-55,940. The normalized data was analyzed using a 4-parameter nonlinear logistic equation to yield IC50 values. Data from at least two independent experiments performed in duplicate was used to calculate IC50 values which were converted to Ki values using the assumptions of Cheng et al, Relationship Between the Inhibition Constant (Ki) and the concentration of Inhibitor which causes 50% Inhibition (IC50) of an Enzymatic Reaction, Biochem. Pharmacol., 22, 3099–3102, (1973), which is incorporated by reference herein.

CB2 receptor = target: T2, CB2 receptor (Mus musculus, UniProt P47936); assay: CB2 receptor binding, [3H] CP-55,940 displacement, mouse spleen membranes; settings: mouse spleen membranes, [3H] CP-55,940, read-out: Kl CB2 (converted)
T2 construct: membranes were prepared from frozen mouse spleen; from tissue; host or cells: mouse spleen
Protocol: as §1, §2
For the CB2 receptor binding studies, membranes were prepared from frozen mouse spleen essentially according to the procedure of P. R. Dodd et al, A Rapid Method for Preparing Synaptosomes: Comparison with Alternative Procedures, Brain Res., 226, 107–118 (1981) which is incorporated by reference herein. Silanized centrifuge tubes were used throughout to minimize receptor loss due to adsorption. The CB2 binding assay was conducted in the same manner as for the CB1 binding assay. The binding affinities (Ki) were also expressed in nanomoles (nM).

T2 sequence (P47936 whole entry): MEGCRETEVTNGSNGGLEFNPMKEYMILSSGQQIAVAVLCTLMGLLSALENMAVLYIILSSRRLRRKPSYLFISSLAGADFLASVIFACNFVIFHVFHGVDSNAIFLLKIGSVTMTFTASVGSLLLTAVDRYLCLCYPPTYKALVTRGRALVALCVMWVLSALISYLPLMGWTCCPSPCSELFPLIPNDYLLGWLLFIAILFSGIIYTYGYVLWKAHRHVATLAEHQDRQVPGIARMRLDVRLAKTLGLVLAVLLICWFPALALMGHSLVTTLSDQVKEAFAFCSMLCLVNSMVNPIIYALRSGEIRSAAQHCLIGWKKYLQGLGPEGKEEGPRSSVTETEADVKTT
T1 sequence (P20272 whole entry): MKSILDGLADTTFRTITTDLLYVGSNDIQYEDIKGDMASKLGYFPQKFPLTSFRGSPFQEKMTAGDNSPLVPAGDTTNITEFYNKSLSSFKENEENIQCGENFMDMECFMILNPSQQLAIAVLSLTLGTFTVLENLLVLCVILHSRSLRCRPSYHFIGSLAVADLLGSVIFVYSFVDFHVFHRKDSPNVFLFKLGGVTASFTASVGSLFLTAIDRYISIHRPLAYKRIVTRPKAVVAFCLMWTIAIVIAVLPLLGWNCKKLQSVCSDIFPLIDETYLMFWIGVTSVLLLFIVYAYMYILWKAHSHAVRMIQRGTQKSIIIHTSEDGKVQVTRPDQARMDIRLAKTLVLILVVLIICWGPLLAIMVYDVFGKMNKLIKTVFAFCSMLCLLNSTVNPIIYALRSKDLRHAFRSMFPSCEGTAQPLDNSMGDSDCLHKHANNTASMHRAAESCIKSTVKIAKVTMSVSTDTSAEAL

Compound | Ki (CB1 receptor; TABLE 1, racemic samples) [nM] | Ki (CB2 receptor; TABLE 1, racemic samples) [nM] | Ki (CB1 receptor; TABLE 2) [nM] | Ki (CB2 receptor; TABLE 2) [nM]
CN1CCCCC1Cn1cc(C(=O)c2ccc(N=C=S)c3ccccc23)c2ccc(N=C=S)cc21 (racemic) [AM2215] | 235 | 99.6 |  | 
Cc1c(C(=O)c2ccccc2I)c2ccc([N+](=O)[O-])cc2n1CC1CCCCN1C (racemic) [AM664] | 40 | 80 |  | 
CCCCCn1cc(C(=O)c2cc([N+](=O)[O-])ccc2I)c2ccccc21 [AM1202] |  |  | 98.9 | 22.9
Cc1c(C(=O)c2ccccc2)c2ccc(N=[N+]=[N-])cc2n1CC1CCCCN1C (racemic) [AM671] | 155 | 59.1 |  | 
CN1CCCCC1Cn1cc(C(=O)c2cccc3ccccc23)c2ccc(N)cc21 (racemic) [AM1219] | 96.6 | 31.3 |  | 
Cc1c(C(=O)c2cccc3ccccc23)c2ccc(N)cc2n1CC1CCCCN1C (racemic) [AM1225] | 440 | 38.5 |  | 
O=C(c1cccc2ccccc12)c1cn(CCCI)c2ccccc12 [AM1292] |  |  | 3.1 | 18.1
CCCCn1c(C)c(C(=O)c2ccccc2I)c2ccccc21 [AM683] |  |  | 272 | 281
Cc1c(C(=O)c2ccccc2)c2ccc(N=C=S)cc2n1CC1CCCCN1C (racemic) [AM684] | 181 | 44.8 |  | 
[N-]=[N+]=Nc1ccc(C(=O)c2cn(CCCCI)c3ccccc23)c2ccccc12 [AM2213] |  |  | 3 | 30
Cc1c(C(=O)c2ccccc2I)c2ccc(N=[N+]=[N-])cc2n1CC1CCCCN1C (racemic) [AM1215] | 40.7 | 21.9 |  | 
Cc1c(C(=O)c2ccccc2I)c2ccc(N)cc2n1CC1CCCCN1C (racemic) [AM665] | 206 | 20.3 |  | 
Cc1c(C(=O)c2ccccc2I)c2ccccc2n1CCCCCI [AM2229] |  |  | 116 | 46.2
CN1CCCCC1Cn1cc(C(=O)c2cc(N=[N+]=[N-])ccc2I)c2ccc(N=[N+]=[N-])cc21 (racemic) [AM2209] | 48.8 | 41.8 |  | 
CCCCCn1c(C)c(C(=O)c2ccccc2I)c2ccccc21 [AM669] |  |  | 47.2 | 38.6
CN1CCCCC1Cn1cc(C(=O)c2cccc3ccccc23)c2ccccc21 (centres unmarked) [AM1296] | 7.57 | 3.88 |  | 
CCCCCCCn1c(C)c(C(=O)c2ccccc2I)c2ccccc21 [AM672] |  |  | 1600 | 1510
O=C(c1ccccc1I)c1cn(CCCCCO)c2ccccc12 [AM693] |  |  | 835 | 526
CC(=O)OCCCCCn1cc(C(=O)c2cccc3ccccc23)c2ccc([N+](=O)[O-])cc21 [AM1233] |  |  | 142 | 154
